Results on 1 molecule are retold here after US12458580B2, “Body ink compositions and applicators” (Inkbox Ink Inc., priority 2015, dated 2025).

≈ marks a conversion by molar mass, not a printed value.

The nature of data set [1]: solubility limit of genipin in the liquid composition. Conditions: liquid composition: solvent with dissolved genipin; liquid form, solvent water or buffered water. It counts as physicochemical. Here is the method:
(§1) In liquid form, the composition consists of at least a solvent and dissolved genipin in an amount in the range of 10 mM to 200 mM (millimolar), with a preference towards the upper end of this range. […] The ultimate upper limit of 200 mM is the amount where the tattoo applicator becomes too stiff and ultimately impractical to use. The solvent may be pure water, or alternatively buffered water. It has been discovered that maintaining an optimal pH of 7.4 produces the highest degree of effectiveness. Use of a buffer allows such a pH to be accurately maintained at the optimal level of 7.4. However, for efficacy pure water may be used instead of buffered water. The pH of water is 7.0, which reasonably approximates the determined optimal pH, and is within a range of pH values which lead to preferred results. In a preferred embodiment, isopropyl alcohol or ethyl alcohol is added to the formulation to provide enhanced drying capabilities and increased genipin solubility.

Another data set concerns human skin. Put plainly: staining (inking) of skin. Conditions: liquid form, dissolved genipin. It counts as in vivo. Here is the method: as §1, with “solubility. Generally, the use of water as the solvent is preferred over other possible solvents because certain steps in the inking or staining reaction depend on water as a catalyst. […] Water has a viscosity of 1 centipoise (cP), which is a very low level and one that has been determined to be preferred for the composition of the invention. […]” for “solubility.”

The test system of the next data set is cells. Conditions: cited from earlier work.
For data set [2] the following is noted: at basic pH; cited from earlier work.

A word on the solubility: it is how much of the substance goes into solution per volume. Low values mean little dissolved substance, high ones much dissolved substance. For the molecule `COC(=O)C1=CO[C@@H](O)[C@@H]2C(CO)=CC[C@H]12` [genipin], the solubility in data set [1] worked out at 95 mM (≈ 21.5 mg/mL). Moreover, the “minimum concentration required for staining to take effect” value in the data set with human skin amounted to 10 mM. The “cytotoxicity (harmfulness to cells)” value in the data set on cells is given as “low cytotoxicity”. Besides, the stability in solution entry in data set [2] was “unstable and undergoes self-polymerization”.
